Assay results published in ChEMBL document CHEMBL4706528, “The design, synthesis and anti-tumor mechanism study of new androgen receptor degrader” (Eur J Med Chem, 2020).

How the values were obtained:
MCF7 = assay: Antiproliferative activity against androgen-positive human MCF7 cells assessed as cell growth inhibition measured after 72 hrs by SRB assay; type: functional, cell-based; details: MCF7, 72 h
LNCaP = assay: Antiproliferative activity against androgen-positive human LNCaP cells assessed as cell growth inhibition measured after 72 hrs by SRB assay; type: functional, cell-based
[1] = target: T1, Androgen receptor (Homo sapiens) (UniProt P10275); assay: Binding affinity to androgen receptor LBD (unknown origin) at 10 uM incubated for 4 hrs under dark by fluorescence polarization based binding assay relative to R1881
T1 sequence (whole entry): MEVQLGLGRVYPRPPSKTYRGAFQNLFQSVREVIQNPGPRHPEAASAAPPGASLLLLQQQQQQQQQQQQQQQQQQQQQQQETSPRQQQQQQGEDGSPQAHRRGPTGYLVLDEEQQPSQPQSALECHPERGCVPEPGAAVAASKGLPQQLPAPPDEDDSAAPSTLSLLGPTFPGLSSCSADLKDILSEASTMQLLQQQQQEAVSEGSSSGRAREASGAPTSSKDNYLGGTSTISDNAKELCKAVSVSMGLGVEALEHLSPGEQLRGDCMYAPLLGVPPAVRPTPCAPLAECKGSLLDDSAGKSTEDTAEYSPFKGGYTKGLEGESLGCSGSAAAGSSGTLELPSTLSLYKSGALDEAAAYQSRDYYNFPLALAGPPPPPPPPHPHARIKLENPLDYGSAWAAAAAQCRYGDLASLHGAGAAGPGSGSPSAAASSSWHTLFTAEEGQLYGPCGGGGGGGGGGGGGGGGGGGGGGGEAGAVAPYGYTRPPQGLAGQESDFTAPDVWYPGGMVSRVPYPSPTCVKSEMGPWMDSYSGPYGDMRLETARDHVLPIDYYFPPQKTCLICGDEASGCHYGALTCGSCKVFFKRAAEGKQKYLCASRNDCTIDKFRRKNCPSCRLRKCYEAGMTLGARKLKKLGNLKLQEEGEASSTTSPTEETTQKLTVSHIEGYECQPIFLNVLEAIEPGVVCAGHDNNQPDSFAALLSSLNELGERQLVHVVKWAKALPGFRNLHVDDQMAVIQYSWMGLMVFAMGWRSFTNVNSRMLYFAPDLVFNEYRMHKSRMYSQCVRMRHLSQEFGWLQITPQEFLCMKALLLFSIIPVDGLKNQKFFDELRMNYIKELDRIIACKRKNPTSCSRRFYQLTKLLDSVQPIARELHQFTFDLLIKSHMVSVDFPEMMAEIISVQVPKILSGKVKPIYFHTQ

LNCaP C4-2B = assay: Antiproliferative activity against androgen-sensitive positive human LNCaP C4-2B cells assessed as cell growth inhibition measured after 72 hrs by SRB assay; type: functional, cell-based
PC-3 = assay: Antiproliferative activity against androgen-negative human PC-3 cells assessed as cell growth inhibition measured after 72 hrs by SRB assay; type: functional, cell-based; details: PC-3, 72 h
[2] = Cytotoxicity against androgen-negative human WPMY-1 cells assessed as cell growth inhibition measured after 72 hrs by SRB assay; type: cell-based; details: WPMY-1, 72 h
SGC-7901 = assay: Antiproliferative activity against androgen-positive human SGC-7901 cells assessed as cell growth inhibition measured after 72 hrs by SRB assay; type: functional, cell-based; details: SGC-7901, 72 h
GES1 = assay: Cytotoxicity against androgen-negative human GES1 cells assessed as cell growth inhibition measured after 72 hrs by SRB assay; type: cell-based; details: GES1, 72 h

SMILES | IC50 (MCF7) [µM] | IC50 (LNCaP) [µM] | Activity [1] [%] | IC50 (LNCaP C4-2B) [µM] | IC50 (PC-3) [µM] | IC50 [2] [µM] | IC50 (SGC-7901) [µM] | IC50 (GES1) [µM]
CC1(C)C(=O)N(c2ccc(C#N)c(C(F)(F)F)c2)C(=S)N1CCCn1cc(COCCOCCOCCOC(=O)CC23CC4CC(CC(C4)C2)C3)nn1 | 7.73 | 3.97 | 79.5 | 5.8 | > 80 | > 80 | 4.98 | > 80
CC1(C)C(=O)N(c2ccc(C#N)c(C(F)(F)F)c2)C(=S)N1CCCn1cc(COCCOCCOC(=O)CC23CC4CC(CC(C4)C2)C3)nn1 | 9.12 | 4.06 | 74.6 | 6.03 | > 80 | > 80 | 4.11 | > 80
CC1(C)C(=O)N(c2ccc(C#N)c(C(F)(F)F)c2)C(=S)N1CCCCn1cc(COCCOCCOC(=O)CC23CC4CC(CC(C4)C2)C3)nn1 | 13.3 | 1.86 | 87.8 | 12.3 | > 80 | > 80 | 7.79 | > 80
CC1(C)C(=O)N(c2ccc(C#N)c(C(F)(F)F)c2)C(=S)N1Cc1ccc(-n2cc(COCCOCCOCCOCCOCCOC(=O)CC34CC5CC(CC(C5)C3)C4)nn2)cc1 |  | > 80 | 39.1 | 12.2 | > 80 | > 80 |  | 
CC1(C)C(=O)N(c2ccc(C#N)c(C(F)(F)F)c2)C(=S)N1Cc1ccc(OCCOCCOCCOC(=O)CC23CC4CC(CC(C4)C2)C3)cc1 |  | > 80 | 32 | 14.6 | > 80 | > 80 |  | 
